Source: patent US10266544B2, “Aryl substituted aminomethyl spectinomycin analogs as antibacterial agents” (ST. JUDE CHILDREN'S RESEARCH HOSPITAL, INC., priority 2013, dated 2019)
In brackets after ≈: the same amount, converted by molar mass. Structures can show the parent of a compound that is named as a salt. Where two headings read alike, the source gives them in different places.

Assays:
Type in all cases: cell-based
[1] = system: Streptococcus pneumoniae (R6); assay: MIC determination, microbroth dilution; details: Streptococcus pneumoniae (R6); read-out: MIC S. pn.
[2] = system: Proteus mirabilis (ATCC 25933); assay: MIC determination, microbroth dilution; details: ATCC25933
[3] = system: Staphylococcus aureus (ATCC 29213); assay: MIC determination, microbroth dilution
[4] = system: Proteus vulgaris (ATCC 33420); assay: MIC determination, microbroth dilution; details: ATCC33420
[5] = system: Streptococcus pyogenes (ATCC 700294); assay: MIC determination, microbroth dilution; details: ATCC700294; Streptococcus pyogenes (ATCC 700294); read-out: MIC S. py.
[6] = system: Legionella pneumophila (ATCC 33153); assay: microbe, parasite or virus in culture; details: ATCC33153, 72 h, read-out: Zone of inhibition L.p.
[7] = system: Bacillus subtilis (ATCC 23857); assay: MIC determination, microbroth dilution; details: ATCC23857; Bacillus subtilis (ATCC 23857); read-out: MIC B.s.
[8] = system: Pseudomonas aeruginosa (PA01); assay: MIC determination, microbroth dilution
E. coli K12 ΔtolC = assay: microbe, parasite or virus in culture; details: Escherichia coli, read-out: MIC E.c. Δtolc
[9] = system: M. tuberculosis clinical isolates; assay: microbe, parasite or virus in culture; details: Mycobacterium tuberculosis
[10] = system: Neisseria meningitides (ATCC 13077); assay: Disc diffusion assay; details: ATCC13077, 4 μg per disc, read-out: Zone of inhibition N.m.
[11] = system: Haemophilus influenza (ATCC 49247); assay: microbe, parasite or virus in culture; details: ATCC49247; Haemophilus influenza; 4 μg per disc; range of at least two experiments; read-out: Zone of inhibition H.i.
[12] = system: Enterococcus faecalis (ATCC 33186); assay: MIC determination, microbroth dilution
[13] = system: MRSA, Staphylococcus aureus (NRS70); assay: MIC determination, microbroth dilution; details: read-out: MIC MRSA
[14] = system: Klebsiella pneumoniae (ATCC 33495); assay: MIC determination, microbroth dilution; details: ATCC33495
[15] = system: Escherichia coli (ATCC 700926); assay: MIC determination, microbroth dilution; details: ATCC700926; Escherichia coli (ATCC 700926); read-out: MIC E.c.
Experimental: MICs were determined using the microbroth dilution method according to Clinical Laboratory Standards Institute (CLSI; National, C. F. C. L. S., Methods for Dilution Antimicrobial Susceptibility Tests for Bacteria Grow aerobically-Seventh Edition: Approved Standard M7-A7, CLSI, Wayne, Pa., USA, 2008) and were read by visual inspection. Two fold serial dilutions of antibiotic in 100 μL of the appropriate broth media were first prepared in 96-well round bottom microtiter plates (Nalge Nunc International, Rochester, N.Y., USA). An equivalent volume (100 μL) of bacterial broth inocula containing approximately 10^5 bacterial cfu/mL was added to each well to give final concentrations of drug starting at 200 μg/mL and the plates were incubated aerobically at 37° C. M. tuberculosis microtiter plates were incubated for 7 days and all other strains were incubated overnight. After incubations, in all cases the MIC was recorded as the lowest concentration of drug that prevented bacterial growth.

[16] = system: Burkholderia cepacia (ATCC 25416); assay: MIC determination, microbroth dilution; details: Burkholderia cepacia
[17] = system: Bacillus anthracis, Sterne 34F2; assay: microbe, parasite or virus in culture; details: STERNE34F2, read-out: MIC B.a.
[18] = system: Stenotrophomonas maltophilia (ATCC 13637); assay: MIC determination, microbroth dilution; details: ATCC13637; Stenotrophomonas maltophilia (ATCC 13637); read-out: MIC S.m.
[19] = system: Neisseria gonorrhoeae (ATCC 49226); assay: Disc diffusion assay; details: ATCC49226, 4 μg per disc, read-out: Zone of inhibition N.g.
[20] = system: acinetobacter baumannii (ATCC 19606); assay: MIC determination, microbroth dilution; details: ATCC19606
Bacillus anthracis = assay: microbe, parasite or virus in culture; details: read-out: MIC B.a.
[21] = ATCC29213, Staphylococcus aureus (ATCC 29213), read-out: MIC S.a.
[22] = ATCC33186, Enterococcus faecalis (ATCC 33186), read-out: MIC E.f.
[23] = ATCC25416, read-out: MIC B.c., Burkholderia cepacia (ATCC 25416)
[24] = Staphylococcus aureus, ATCC29213, read-out: MIC S.a.
[25] = ATCC25416, read-out: MIC B.c., Burkholderia cepacia, Table 6

SMILES | MIC [1] [µg/mL] | MIC [2] [µg/mL] | MIC [3, 21] [µg/mL] | MIC [4] [µg/mL] | MIC [5] [µg/mL] | zone of inhibition at 4 µg/disc [6] [mm] | MIC [7] [µg/mL] | MIC [8] [µg/mL] | MIC (E. coli K12 ΔtolC) [µg/mL] | MIC ([9]; H37RV, read-out: MIC H37Rv) [µg/mL] | zone of inhibition at 4 µg/disc [11] [mm] | MIC [12, 22] [µg/mL] | MIC ([13]; Staphylococcus aureus (NRS70)) [µg/mL] | MIC [14] [µg/mL] | MIC [15] [µg/mL] | MIC [16, 23] [µg/mL] | MIC [17] [µg/mL] | MIC [18] [µg/mL] | zone of inhibition at 4 µg/disc [19] [mm] | MIC [20] [µg/mL] | also measured
CN[C@@H]1[C@H](O)[C@H](NC)C2O[C@]3(O)C(OC2[C@H]1O)O[C@H](C)C[C@@]3(O)CNCc1cccc(O)c1 (some centres unmarked) [compound 35] | 0.8 to 1.6 (≈ 1.7 to 3.41 µM) | > 200 | 25 to 50 (≈ 53.2 to 106 µM) | ≥ 200 | 0.4 to 0.8 (≈ 0.852 to 1.7 µM) | 30 | 6.3 (≈ 13.4 µM) | ≥ 200 | 6.3 to 12.5 (≈ 13.4 to 26.6 µM) | 50 (≈ 106 µM) | 15 to 16 | 12.5 (≈ 26.6 µM) | 25 to 50 (≈ 53.2 to 106 µM) | > 200 | 200 (≈ 426 µM) | > 200 | 25 (≈ 53.2 µM) | 25 (≈ 53.2 µM) | 16 | > 200 | zone of inhibition at 4 µg/disc [10]: 18 mm
CN[C@@H]1[C@H](O)[C@H](NC)[C@H]2O[C@]3(O)[C@H](O[C@@H]2[C@H]1O)O[C@H](C)C[C@@]3(O)CNc1ccccc1 [compound 30, 3′-(R)-3′-(phenylaminomethyl)dihydrospectinomycin Trihydrochloride] | 12.5 to 25 | > 200 | > 200 | > 200 | 12.5 to 25 | 0 | ≥ 200 | > 200 | 50 | > 200 | 6 |  | > 200 | > 200 | 200 | > 200 | 100 to 200 | ≥ 200 | 7 | > 200 | zone of inhibition at 4 µg/disc [10]: 6 mm
CN[C@@H]1[C@H](O)[C@H](NC)[C@H]2O[C@]3(O)[C@H](O[C@@H]2[C@H]1O)O[C@H](C)C[C@@]3(O)CNCCc1ccc(C)cc1 [compound 32, 3′-(R)-3′-[(4-Methyl)]Phenethylaminomethyl)]Dihydrospectinomycin Trihydrochloride] | 6.3 | > 200 |  | 100 | 3.1 to 6.3 |  | 3.1 to 6.3 | ≥ 200 | 50 to 100 | 3.1 |  |  |  | > 200 | 100 to 200 | > 200 | 12.5 | 6.3 |  | > 200 | MIC [3, 24]: 12.5 µg/mL; MIC ([9]; read-out: MIC TN022): 6.3 µg/mL; MIC ([9]; read-out: MIC TN026): 6.3 µg/mL; MIC ([12]; Enterococcus faecalis, ATCC33186, read-out: MIC E.f.): 12.5 µg/mL; MIC ([13]; Staphylococcus aureus): 12.5 to 25 µg/mL; MIC (Bacillus anthracis): 12.5 µg/mL; MIC [16, 25]: ≥ 200 µg/mL
CN[C@@H]1[C@H](O)[C@H](NC)[C@H]2O[C@]3(O)[C@H](O[C@@H]2[C@H]1O)O[C@H](C)C[C@@]3(O)CNc1ccc(OC)cc1 [compound 29, 3′-(R)-3′-[(4-methoxy)phenylaminomethyl)]dihydrospectinomycin Trihydrochloride] | > 200 | > 200 | 200 | > 200 | 25 | 0 | 200 | > 200 | 50 | > 200 | 7 |  | > 200 | > 200 | ≥ 200 |  | 100 to 200 | 200 | 12 | ≥ 200 | zone of inhibition at 4 µg/disc [10]: 7 mm
CN[C@@H]1[C@H](O)[C@H](NC)C2O[C@]3(O)C(OC2[C@H]1O)O[C@H](C)C[C@@]3(O)CNCc1ccc(Cc2ccccc2)cc1 (some centres unmarked) [compound 44] | 6.25 (≈ 11.5 µM) |  | 50 (≈ 92 µM) |  | 3.13 (≈ 5.76 µM) |  | 25 (≈ 46 µM) |  |  | 100 (≈ 184 µM) |  | 25 (≈ 46 µM) | 25 (≈ 46 µM) |  |  |  | > 200 |  |  |  | 
CN[C@@H]1[C@H](O)[C@H](NC)C2O[C@]3(O)C(OC2[C@H]1O)O[C@H](C)C[C@@]3(O)CNCc1ccc(CO)o1 (some centres unmarked) [compound 42] | 50 (≈ 106 µM) |  | 200 (≈ 422 µM) |  | 50 (≈ 106 µM) |  | 50 (≈ 106 µM) |  |  | 25 (≈ 52.8 µM) |  | 200 (≈ 422 µM) | > 200 |  |  |  | > 200 |  |  |  | 
CN[C@@H]1[C@H](O)[C@H](NC)[C@H]2O[C@]3(O)[C@H](O[C@@H]2[C@H]1O)O[C@H](C)C[C@@]3(O)CNCCc1ccc(F)cc1 [compound 33, 3′-(R)-3′-(4-FLUOROphenethylaminomethyl)dihydrospectinomycin Trihydrochloride] |  |  |  |  |  |  | 3.1 to 6.3 |  | 6.3 | 3.1 |  | 25 | 25 to 50 | 200 | 12.5 | ≥ 200 | 12.5 |  |  | > 200 | MIC [3, 24]: 12.5 to 25 µg/mL; MIC ([9]; read-out: MIC TN022): 6.3 µg/mL; MIC ([9]; read-out: MIC TN026): 6.3 µg/mL; MIC (Bacillus anthracis): 12.5 µg/mL; MIC [16, 25]: > 200 µg/mL
CN[C@@H]1[C@H](O)[C@H](NC)C2O[C@]3(O)C(OC2[C@H]1O)O[C@H](C)C[C@@]3(O)CNCc1ccc(OC)c2c1CCCC2 (some centres unmarked) [compound 45] | 25 (≈ 46.5 µM) |  | 100 (≈ 186 µM) |  | 25 (≈ 46.5 µM) |  | 50 (≈ 93 µM) |  |  | 200 (≈ 372 µM) |  | 50 (≈ 93 µM) | 200 (≈ 372 µM) |  |  |  | > 200 |  |  |  | 
CN[C@@H]1[C@H](O)[C@H](NC)C2O[C@]3(O)C(OC2[C@H]1O)O[C@H](C)C[C@@]3(O)CNCc1cn(C)c2ccccc12 (some centres unmarked) [compound 37] | 25 (≈ 49.3 µM) |  | 50 (≈ 98.7 µM) |  | 12.5 (≈ 24.7 µM) |  | 12.5 (≈ 24.7 µM) |  |  | 50 (≈ 98.7 µM) |  | 50 (≈ 98.7 µM) | 200 (≈ 395 µM) |  |  |  | > 200 |  |  |  | 
CN[C@@H]1[C@H](O)[C@H](NC)C2O[C@]3(O)C(OC2[C@H]1O)O[C@H](C)C[C@@]3(O)CNCc1ccc2c(c1)OCO2 (some centres unmarked) [compound 36] | 25 (≈ 50.2 µM) |  | 100 (≈ 201 µM) |  | 25 (≈ 50.2 µM) |  | 12.5 (≈ 25.1 µM) |  |  | 50 (≈ 100 µM) |  | 100 (≈ 201 µM) | > 200 |  |  |  | > 200 |  |  |  | 
CN[C@@H]1[C@H](O)[C@H](NC)[C@H]2O[C@]3(O)[C@H](O[C@@H]2[C@H]1O)O[C@H](C)C[C@@]3(O)CNc1ccc(F)cc1 [compound 31, 3′-(R)-3′-[(4-fluoro)phenylaminomethyl)]dihydrospectinomycin Trihydrochloride] | 12.5 to 25 | > 200 | 200 | > 200 | 12.5 to 25 | 0 | 200 | > 200 | 50 to 100 | 200 | 6 |  | > 200 | > 200 | 100 to 200 | > 200 | 200 | 200 | 12 | > 200 | 
